This note sets out measurements from ChEMBL document CHEMBL1131081, “Beta-amino-thiols inhibit the zinc metallopeptidase activity of tetanus toxin light chain” (J Med Chem, 1998).

Each structure is given as a SMILES string.

A short description of the assay: Binding affinity against S1 subsite of the Tetanus neurotoxin (TeNt). Also on record: species or system Clostridium tetani.
By Ki is commonly meant the equilibrium dissociation constant of an inhibitor or competing ligand from its target. Low readings indicate a stronger hold on the target, high ones a looser hold on the target. For the compound `CN(C)C(=O)c1cccc(C(N)CS)c1` (stereo unspecified), the Ki amounted to 250 µM.
Then `NC(CS)c1cccc(S(=O)(=O)O)c1` (stereo unspecified), with 40 µM; and `NC(CS)CCS(N)(=O)=O` (stereo unspecified), with 100 µM.
For `NCC(CS)CCS(=O)(=O)O` (stereo unspecified) the value was 500 µM.
The compound `NC(CS)c1cccc(S(N)(=O)=O)c1` (stereo unspecified) came in with a Ki of 35 µM.
Then `NC(=O)c1cccc(C(N)CS)c1` (stereo unspecified), with 125 µM.
